Experimental data as given in US20200339625A1, “NOVEL RADIOMETAL-BINDING COMPOUNDS FOR DIAGNOSIS OR TREATMENT OF PROSTATE SPECIFIC MEMBRANE ANTIGEN-EXPRESSING CANCER” (PROVINCIAL HEALTH SERVICES AUTHORITY, priority 2017, published 2020).
Each block holds one compound with its values, some of them ahead of it.

How the values were obtained:
[1] = tested on: mice bearing LNCaP tumor xenografts; assay: PET/CT imaging of 68Ga-labeled compounds; assay type: in vivo
In short: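 Male NOD SCID IL2Rγ KO mice bore subcutaneous LNCaP xenografts (1×10^7 cells, tumours 5-8 mm) and received 6-8 MBq tracer via tail vein under 2% isoflurane. At 50 min p.i., a 10-min CT and a 10-min static PET were acquired. For the 3 h time point, scanning began at 170 min p.i. with a 15-min static PET.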

[2] = tested on: mice bearing PSMA-expressing LNCAP cancer xenografts; assay: Biodistribution of 68Ga-labeled compounds; assay type: in vivo
In short: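 NOD-SCID IL2RγKO male mice carried subcutaneous LNCaP xenografts grown to 5-8 mm over 5-6 weeks. Organs and blood were collected at 1 or 3 h after injection of the radiotracer and gamma-counted. Uptake was normalized to injected dose via a standard curve and expressed as %ID/g.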

change of tumor uptake from 1 h to 3 h post-injection ([1]; PET/CT images): increases over time
blood retention (qualitative) ([1]; PET/CT images at 1 h and 3 h post-injection, comparison within the figure): significantly higher blood retention
Adrenal glands uptake ([2]; 1 h post-injection): 4.57 ± 1.06 % ID/g
Blood uptake ([2]; 1 h post-injection): 6.69 ± 0.27 % ID/g
Bone uptake ([2]; 1 h post-injection): 0.41 ± 0.08 % ID/g
Brain uptake ([2]; 1 h post-injection): 0.09 ± 0.01 % ID/g
Fat uptake ([2]; 1 h post-injection): 2.14 ± 0.29 % ID/g
Heart uptake ([2]; 1 h post-injection): 1.73 ± 0.14 % ID/g
Intestine uptake ([2]; 1 h post-injection): 0.76 ± 0.05 % ID/g
Kidneys uptake ([2]; 1 h post-injection): 91.1 ± 7.42 % ID/g
Lacrimal uptake ([2]; 1 h post-injection): 0.05 ± 0.03 % ID/g
Liver uptake ([2]; 1 h post-injection): 1.33 ± 0.27 % ID/g
Lungs uptake ([2]; 1 h post-injection): 4.68 ± 0.35 % ID/g
Muscle uptake ([2]; 1 h post-injection): 0.79 ± 0.06 % ID/g
Pancreas uptake ([2]; 1 h post-injection): 1.00 ± 0.07 % ID/g
Salivary uptake ([2]; 1 h post-injection): 3.95 ± 0.32 % ID/g
Seminal uptake ([2]; 1 h post-injection): 0.66 ± 0.24 % ID/g
Spleen uptake ([2]; 1 h post-injection): 8.56 ± 3.07 % ID/g
Stomach uptake ([2]; 1 h post-injection): 0.34 ± 0.07 % ID/g
Tail uptake ([2]; 1 h post-injection): 2.54 ± 0.33 % ID/g
Testes uptake ([2]; 1 h post-injection): 1.35 ± 0.14 % ID/g
Thyroid uptake ([2]; 1 h post-injection): 2.32 ± 0.10 % ID/g
Tumor uptake ([2]; 1 h post-injection): 21.7 ± 2.48 % ID/g
Tumor:Blood ratio ([2]; 1 h post-injection): 3.25 ± 0.43
Tumor:Muscle ratio ([2]; 1 h post-injection): 27.4 ± 4.01
Urine uptake ([2]; 1 h post-injection): 47.9 ± 46.6 % ID/g
Adrenal glands uptake ([2]; 3 h post-injection): 2.76 ± 0.44 % ID/g
Blood uptake ([2]; 3 h post-injection): 2.52 ± 0.69 % ID/g
Bone uptake ([2]; 3 h post-injection): 0.15 ± 0.05 % ID/g
Brain uptake ([2]; 3 h post-injection): 0.04 ± 0.02 % ID/g
Fat uptake ([2]; 3 h post-injection): 1.28 ± 0.25 % ID/g
Heart uptake ([2]; 3 h post-injection): 0.68 ± 0.16 % ID/g
Intestine uptake ([2]; 3 h post-injection): 0.45 ± 0.10 % ID/g
Kidneys uptake ([2]; 3 h post-injection): 96.4 ± 21.9 % ID/g
Lacrimal uptake ([2]; 3 h post-injection): 0.00 ± 0.00 % ID/g
Liver uptake ([2]; 3 h post-injection): 0.73 ± 0.41 % ID/g
Lungs uptake ([2]; 3 h post-injection): 2.14 ± 0.42 % ID/g
Muscle uptake ([2]; 3 h post-injection): 0.29 ± 0.04 % ID/g
Pancreas uptake ([2]; 3 h post-injection): 0.47 ± 0.07 % ID/g
Salivary uptake ([2]; 3 h post-injection): 1.45 ± 0.33 % ID/g
Seminal uptake ([2]; 3 h post-injection): 0.24 ± 0.05 % ID/g
Spleen uptake ([2]; 3 h post-injection): 2.56 ± 0.89 % ID/g
Stomach uptake ([2]; 3 h post-injection): 0.19 ± 0.04 % ID/g
Tail uptake ([2]; 3 h post-injection): 1.01 ± 0.23 % ID/g
Testes uptake ([2]; 3 h post-injection): 0.73 ± 0.16 % ID/g
Thyroid uptake ([2]; 3 h post-injection): 0.98 ± 0.25 % ID/g
Tumor uptake ([2]; 3 h post-injection): 31.2 ± 2.11 % ID/g
Tumor:Blood ratio ([2]; 3 h post-injection): 13.1 ± 3.76
Tumor:Muscle ratio ([2]; 3 h post-injection): 108 ± 13.6
Urine uptake ([2]; 3 h post-injection): 88.5 ± 45.6 % ID/g
SMILES: O=C([O-])CN1CCN(CC(=O)[O-])CCN(CC(=O)NCCCC[C@H](NC(=O)CNC(=O)CCCc2ccc([N+](=O)[O-])cc2)C(=O)NC[C@H]2CC[C@H](C(=O)N[C@@H](Cc3ccc4ccccc4c3)C(=O)NCCCC[C@H](NC(=O)N[C@@H](CCC(=O)O)C(=O)O)C(=O)O)CC2)CCN(CC(=O)[O-])CC1.[68Ga+3] [^68Ga-HTK03089]

change of tumor uptake from 1 h to 3 h post-injection ([1]; PET/CT images): increases from 1 h to 3 h post-injection
excretion pathway ([1]; PET/CT images): excreted mainly via the renal pathway
tumor uptake (qualitative comparison) ([1]; PET/CT images, compounds of FIG. 13): highest tumor uptake
Adrenal glands uptake ([2]; 1 h post-injection): 8.90 ± 2.56 % ID/g
Blood uptake ([2]; 1 h post-injection): 1.43 ± 0.30 % ID/g
Bone uptake ([2]; 1 h post-injection): 1.29 ± 0.45 % ID/g
Brain uptake ([2]; 1 h post-injection): 0.10 ± 0.05 % ID/g
Fat uptake ([2]; 1 h post-injection): 2.06 ± 0.59 % ID/g
Heart uptake ([2]; 1 h post-injection): 1.82 ± 0.21 % ID/g
Intestine uptake ([2]; 1 h post-injection): 1.14 ± 0.18 % ID/g
Kidneys uptake ([2]; 1 h post-injection): 170 ± 26.4 % ID/g
Lacrimal uptake ([2]; 1 h post-injection): 2.44 ± 1.79 % ID/g
Liver uptake ([2]; 1 h post-injection): 1.38 ± 0.25 % ID/g
Lungs uptake ([2]; 1 h post-injection): 4.32 ± 0.62 % ID/g
Muscle uptake ([2]; 1 h post-injection): 0.75 ± 0.09 % ID/g
Pancreas uptake ([2]; 1 h post-injection): 1.47 ± 0.16 % ID/g
Salivary uptake ([2]; 1 h post-injection): 4.99 ± 0.88 % ID/g
Seminal uptake ([2]; 1 h post-injection): 1.03 ± 0.27 % ID/g
Spleen uptake ([2]; 1 h post-injection): 8.95 ± 3.22 % ID/g
Stomach uptake ([2]; 1 h post-injection): 0.41 ± 0.11 % ID/g
Tail uptake ([2]; 1 h post-injection): 1.36 ± 0.45 % ID/g
Testes uptake ([2]; 1 h post-injection): 1.34 ± 0.22 % ID/g
Thyroid uptake ([2]; 1 h post-injection): 2.48 ± 0.44 % ID/g
Tumor uptake ([2]; 1 h post-injection): 23.1 ± 6.11 % ID/g
Tumor:Blood ratio ([2]; 1 h post-injection): 17.3 ± 7.24
Tumor:Muscle ratio ([2]; 1 h post-injection): 31.6 ± 12.1
Tumor:kidney ratio ([2]; 1 h post-injection): 0.14 ± 0.04
Urine uptake ([2]; 1 h post-injection): 173 ± 93.01 % ID/g
Adrenal glands uptake ([2]; 3 h post-injection): 4.04 ± 1.20 % ID/g
Blood uptake ([2]; 3 h post-injection): 0.83 ± 0.27 % ID/g
Bone uptake ([2]; 3 h post-injection): 0.98 ± 0.40 % ID/g
Brain uptake ([2]; 3 h post-injection): 0.06 ± 0.02 % ID/g
Fat uptake ([2]; 3 h post-injection): 1.06 ± 0.20 % ID/g
Heart uptake ([2]; 3 h post-injection): 0.93 ± 0.17 % ID/g
Intestine uptake ([2]; 3 h post-injection): 0.67 ± 0.09 % ID/g
Kidneys uptake ([2]; 3 h post-injection): 121 ± 37.6 % ID/g
Lacrimal uptake ([2]; 3 h post-injection): 2.82 ± 3.84 % ID/g
Liver uptake ([2]; 3 h post-injection): 0.82 ± 0.15 % ID/g
Lungs uptake ([2]; 3 h post-injection): 2.14 ± 0.39 % ID/g
Muscle uptake ([2]; 3 h post-injection): 0.40 ± 0.06 % ID/g
Pancreas uptake ([2]; 3 h post-injection): 0.71 ± 0.12 % ID/g
Salivary uptake ([2]; 3 h post-injection): 2.11 ± 0.57 % ID/g
Seminal uptake ([2]; 3 h post-injection): 4.56 ± 9.00 % ID/g
Spleen uptake ([2]; 3 h post-injection): 4.19 ± 1.58 % ID/g
Stomach uptake ([2]; 3 h post-injection): 0.26 ± 0.06 % ID/g
Tail uptake ([2]; 3 h post-injection): 0.86 ± 0.73 % ID/g
Testes uptake ([2]; 3 h post-injection): 0.89 ± 0.12 % ID/g
Thyroid uptake ([2]; 3 h post-injection): 1.19 ± 0.23 % ID/g
Tumor uptake ([2]; 3 h post-injection): 28.2 ± 9.17 % ID/g
Tumor:Blood ratio ([2]; 3 h post-injection): 36.6 ± 15.4
Tumor:Muscle ratio ([2]; 3 h post-injection): 73.8 ± 30.9
Tumor:kidney ratio ([2]; 3 h post-injection): 0.26 ± 0.13
Urine uptake ([2]; 3 h post-injection): 171 ± 93.3 % ID/g
SMILES: O=C([O-])CN1CCN(CC(=O)[O-])CCN(CC(=O)NCC2CCC(C(=O)NC(Cc3c4ccccc4cc4ccccc34)C(=O)NCCCCC(NC(=O)NC(CCC(=O)O)C(=O)O)C(=O)O)CC2)CCN(CC(=O)[O-])CC1.[68Ga+3] (stereo not shown) [^68Ga-HTK03041]
